Source: ChEMBL document CHEMBL1201862, “PubChem BioAssay data set” (2004)
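Compound exposure: 48 hours, 5 concentrations, 96-well plates. GI50: concentration for 50% inhibition of growth.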 The source made the active and inactive calls. Cut-off read from the data, not from the text of the source: active = GI50 up to about 1.1 µM and inactive = higher.

How the values were obtained:
Experiment in all cases: NCI tumour cell line growth inhibition, 48 h
TK-10 = system: TK-10
SK-MEL-2 = system: SK-MEL-2
786-0 = system: 786-0
RXF 393 = system: RXF 393
CCRF-CEM = system: CCRF-CEM
KM-20L2 = system: KM-20L2
COLO 205 = system: COLO 205
NCI-H23 = system: NCI-H23
HOP-92 = system: HOP-92
NCI-H460 = system: NCI-H460
HCT-15 = system: HCT-15
SF-295 = system: SF-295
SK-MEL-28 = system: SK-MEL-28
OVCAR-8 = system: OVCAR-8

Measured: GI50

CC(=O)C1C(=O)C(=O)N(c2ccc(Cl)cc2C)C1=O (stereo not drawn)
> 100 µM: HCT-15
inactive: TK-10 > 100 µM | SK-MEL-2 > 100 µM | 786-0 > 100 µM | RXF 393 > 100 µM | CCRF-CEM > 100 µM | KM-20L2 > 100 µM | COLO 205 > 100 µM | NCI-H23 > 100 µM | HOP-92 > 100 µM | NCI-H460 > 100 µM | SF-295 > 100 µM | SK-MEL-28 > 100 µM | OVCAR-8 > 100 µM

O=C(NNc1ccc([N+](=O)[O-])cc1)C1OC(CO)C(O)C1O (stereo not drawn)
inactive: TK-10 > 100 µM | SK-MEL-2 > 100 µM | 786-0 26.4 µM | RXF 393 > 100 µM | CCRF-CEM 43.7 µM | KM-20L2 > 100 µM | COLO 205 > 100 µM | NCI-H23 > 100 µM | HOP-92 > 100 µM | NCI-H460 > 100 µM | SF-295 > 100 µM | SK-MEL-28 > 100 µM | OVCAR-8 > 100 µM
54.8 µM: HCT-15

COc1cc(C2C(C(=O)Nc3ccccc3C)=C(C)NC(C)=C2C(=O)Nc2ccccc2C)ccc1O
inactive: TK-10 > 100 µM | SK-MEL-2 > 100 µM | 786-0 > 100 µM | RXF 393 > 100 µM | CCRF-CEM 71.8 µM | KM-20L2 > 100 µM | COLO 205 > 100 µM | NCI-H23 > 100 µM | HOP-92 > 100 µM | NCI-H460 > 100 µM | SF-295 > 100 µM | SK-MEL-28 > 100 µM | OVCAR-8 > 100 µM

Cc1ccc(S(=O)(=O)N/N=C(/c2nc3ccc([N+](=O)[O-])cc3nc2O)C(O)c2ccc(C(O)/C(=N\NS(=O)(=O)c3ccc(C)cc3)c3nc4ccc([N+](=O)[O-])cc4nc3O)cc2)cc1 (stereo not drawn)
inactive: TK-10 > 100 µM | SK-MEL-2 77.6 µM | 786-0 > 100 µM | RXF 393 > 100 µM | CCRF-CEM 13.6 µM | KM-20L2 55.8 µM | COLO 205 41.4 µM | NCI-H23 > 100 µM | HOP-92 2.55 µM | NCI-H460 35.6 µM | SK-MEL-28 > 100 µM | OVCAR-8 92.3 µM
